Measured values taken from patent publication US20200024278A1, “COMPOSITION COMPRISING ANTIBIOTIC COMPOUND AND AN HETEROCYCLIC COMPOUND AND THEIR USE IN PREVENTING OR TREATING BACTERIAL INFECTIONS” (MUTABILIS, priority 2016, published 2020).
Read-outs that look alike come from different tables or passages of the source.

Assays:
Experiment in all cases: MIC, broth microdilution (CLSI), substance alone or ATB combined with compound at 4 or 8 μg/mL
PAE 105250 = assay type: cell-based, P. aeruginosa; conditions: PAE 105250
Summary of the method: (§1)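 Antibiotic MICs were determined in presence of fixed compound at 4 or 8 μg/mL, and compound MICs alone, by visual growth inhibition. Inoculum 5·10^5 CFU/mL in ca-MHB, incubated 35 °C for 16-20 h per CLSI-M7-A7. Glucose-6-phosphate (25 μg/ml) added when fosfomycin was tested.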

PAE UFR90 = assay type: cell-based, P. aeruginosa; conditions: PAE UFR90; for MIC: Pseudomonas aeruginosa
Summary of the method: as §1

PAE UFR48 = assay type: cell-based, P. aeruginosa; conditions: PAE UFR48; for MIC: Pseudomonas aeruginosa
Summary of the method: as §1

ECO UFR39 = assay type: cell-based, E. coli; conditions: ECO UFR39
Summary of the method: as §1

ECO 190317 = assay type: cell-based, E. coli; conditions: ECO 190317
Summary of the method: as §1

ECL P99 = assay type: cell-based, E. cloacae; conditions: ECL P99
Summary of the method: as §1

[1] = antibiotic alone, read-out: MIC ATB alone
[2] = Escherichia coli, antibiotic alone, read-out: MIC ATB alone

Question: With `NCC[C@H](O)C(=O)N[C@@H]1C[C@H](N)[C@@H](O[C@H]2O[C@H](CN)[C@@H](O)[C@H](O)[C@H]2O)[C@H](O)[C@H]1O[C@H]1O[C@H](CO)[C@@H](O)[C@H](N)[C@H]1O` [AN, Amikacin, reference compound] as the compound, how does the “MIC ATB combined with Example 1 @8 μg/ml” value (PAE 105250; with Example 1 @8 μg/ml) read?
Answer: The value was <0.031 µg/mL.

Question: What about the “MIC ATB combined with Example 1 @8 μg/ml” value (PAE 105250; with Example 1 at 8 μg/ml) of the same compound?
Answer: The value was <0.031 µg/mL.

Question: What about the “MIC ATB combined with Example 7 @8 μgml” value (PAE 105250; with Example 7 at 8 μg/ml) of the same compound?
Answer: The value was 2 µg/mL.

Question: And the “MIC ATB combined with Example 9 @4 μg/ml” value (PAE 105250; with Example 9 @4 μg/ml)?
Answer: Its value is 2 µg/mL.

Question: What about the “MIC ATB combined with Example 9 @4 μg/ml” value (PAE 105250; with Example 9 at 4 μg/ml) of the same compound?
Answer: Its value is 2 µg/mL.

Question: And the “MIC ATB combined with Example 11 @8 μg/ml” value (PAE 105250; with Example 11 at 8 μg/ml)?
Answer: Its value is 2 µg/mL.

Question: What about the “MIC ATB combined with Example 12 @8 μg/ml” value (PAE 105250; with Example 12 at 8 μg/ml) of the same compound?
Answer: The value was 2 µg/mL.

Question: And the “MIC ATB combined with Example 13 @8 μg/ml” value (PAE 105250; with Example 13 at 8 μg/ml)?
Answer: The value was 2 µg/mL.

Question: And the “MIC ATB combined with Example 14 @8 μg/ml” value (PAE 105250; with Example 14 at 8 μg/ml)?
Answer: Its value is 1 µg/mL.

Question: And the “MIC ATB combined with Example 15 @4 μgml” value (PAE 105250; with Example 15 at 4 μg/ml)?
Answer: Its value is 2 µg/mL.

Question: What about the “MIC ATB combined with Example 16 @4 μg/ml” value (PAE 105250; with Example 16 at 4 μg/ml) of the same compound?
Answer: The value was 1 µg/mL.

Question: And the MIC (PAE 105250; Pseudomonas aeruginosa, antibiotic alone, read-out: MIC ATB alone)?
Answer: The MIC was 2 µg/mL.

Question: And the “MIC ATB combined with Example 1 @8 μg/ml” value (PAE UFR90; with Example 1 @8 μg/ml)?
Answer: The value was <0.031 µg/mL.

Question: And the “MIC ATB combined with Example 1 @8 μg/ml” value (PAE UFR90; with Example 1 at 8 μg/ml)?
Answer: Its value is <0.031 µg/mL.

Question: And the “MIC ATB combined with Example 7 @8 μgml” value (PAE UFR90; with Example 7 at 8 μg/ml)?
Answer: The value was 2 µg/mL.

Question: And the “MIC ATB combined with Example 9 @4 μg/ml” value (PAE UFR90; with Example 9 @4 μg/ml)?
Answer: The value was 2 µg/mL.

Question: And the “MIC ATB combined with Example 9 @4 μg/ml” value (PAE UFR90; with Example 9 at 4 μg/ml)?
Answer: Its value is 2 µg/mL.

Question: And the “MIC ATB combined with Example 11 @8 μg/ml” value (PAE UFR90; with Example 11 at 8 μg/ml)?
Answer: The value was 2 µg/mL.

Question: What about the “MIC ATB combined with Example 12 @8 μg/ml” value (PAE UFR90; with Example 12 at 8 μg/ml) of the same compound?
Answer: The value was 2 µg/mL.

Question: What about the “MIC ATB combined with Example 13 @8 μg/ml” value (PAE UFR90; with Example 13 at 8 μg/ml) of the same compound?
Answer: The value was 2 µg/mL.

Question: And the “MIC ATB combined with Example 14 @8 μg/ml” value (PAE UFR90; with Example 14 at 8 μg/ml)?
Answer: The value was 2 µg/mL.

Question: What about the “MIC ATB combined with Example 15 @4 μgml” value (PAE UFR90; with Example 15 at 4 μg/ml) of the same compound?
Answer: Its value is 2 µg/mL.

Question: What about the “MIC ATB combined with Example 16 @4 μg/ml” value (PAE UFR90; with Example 16 at 4 μg/ml) of the same compound?
Answer: The value was 2 µg/mL.

Question: And the MIC (PAE UFR90; [1])?
Answer: Its MIC is 2 µg/mL.

Question: And the MIC (PAE UFR90; substance alone, read-out: MIC)?
Answer: The MIC was 2 µg/mL.

Question: What about the “MIC ATB combined with Example 1 @8 μg/ml” value (PAE UFR48; with Example 1 @8 μg/ml) of the same compound?
Answer: Its value is <0.031 µg/mL.

Question: What about the “MIC ATB combined with Example 1 @8 μg/ml” value (PAE UFR48; with Example 1 at 8 μg/ml) of the same compound?
Answer: Its value is <0.031 µg/mL.

Question: What about the “MIC ATB combined with Example 7 @8 μgml” value (PAE UFR48; with Example 7 at 8 μg/ml) of the same compound?
Answer: Its value is 32 µg/mL.

Question: And the “MIC ATB combined with Example 9 @4 μg/ml” value (PAE UFR48; with Example 9 @4 μg/ml)?
Answer: Its value is 32 µg/mL.

Question: And the “MIC ATB combined with Example 9 @4 μg/ml” value (PAE UFR48; with Example 9 at 4 μg/ml)?
Answer: Its value is 32 µg/mL.

Question: What about the “MIC ATB combined with Example 11 @8 μg/ml” value (PAE UFR48; with Example 11 at 8 μg/ml) of the same compound?
Answer: The value was >32 µg/mL.

Question: And the “MIC ATB combined with Example 12 @8 μg/ml” value (PAE UFR48; with Example 12 at 8 μg/ml)?
Answer: Its value is 32 µg/mL.

Question: What about the “MIC ATB combined with Example 13 @8 μg/ml” value (PAE UFR48; with Example 13 at 8 μg/ml) of the same compound?
Answer: The value was 32 µg/mL.

Question: What about the “MIC ATB combined with Example 14 @8 μg/ml” value (PAE UFR48; with Example 14 at 8 μg/ml) of the same compound?
Answer: The value was 32 µg/mL.

Question: And the “MIC ATB combined with Example 15 @4 μgml” value (PAE UFR48; with Example 15 at 4 μg/ml)?
Answer: Its value is >32 µg/mL.

Question: What about the “MIC ATB combined with Example 16 @4 μg/ml” value (PAE UFR48; with Example 16 at 4 μg/ml) of the same compound?
Answer: The value was 32 µg/mL.

Question: What about the MIC (PAE UFR48; [1]) of the same compound?
Answer: Its MIC is 32 µg/mL.

Question: And the MIC (PAE UFR48; substance alone, read-out: MIC)?
Answer: The MIC was 32 µg/mL.

Question: What about the “MIC ATB combined with Example 1 @8 μg/ml” value (ECO UFR39; with Example 1 @8 μg/ml) of the same compound?
Answer: The value was “<=0.031 μg/mL”.

Question: What about the “MIC ATB combined with Example 1 @8 μg/ml” value (ECO UFR39; with Example 1 at 8 μg/ml) of the same compound?
Answer: The value was “<=0.031 μg/mL”.

Question: And the “MIC ATB combined with Example 7 @8 μgml” value (ECO UFR39; with Example 7 at 8 μg/ml)?
Answer: Its value is <0.031 µg/mL.

Question: And the “MIC ATB combined with Example 9 @4 μg/ml” value (ECO UFR39; with Example 9 @4 μg/ml)?
Answer: Its value is <0.031 µg/mL.

Question: And the “MIC ATB combined with Example 9 @4 μg/ml” value (ECO UFR39; with Example 9 at 4 μg/ml)?
Answer: The value was <0.031 µg/mL.

Question: And the “MIC ATB combined with Example 11 @8 μg/ml” value (ECO UFR39; with Example 11 at 8 μg/ml)?
Answer: Its value is <0.031 µg/mL.

Question: And the “MIC ATB combined with Example 12 @8 μg/ml” value (ECO UFR39; with Example 12 at 8 μg/ml)?
Answer: The value was <0.031 µg/mL.

Question: And the “MIC ATB combined with Example 13 @8 μg/ml” value (ECO UFR39; with Example 13 at 8 μg/ml)?
Answer: Its value is 0.063 µg/mL.

Question: And the “MIC ATB combined with Example 14 @8 μg/ml” value (ECO UFR39; with Example 14 at 8 μg/ml)?
Answer: Its value is <0.031 µg/mL.

Question: And the “MIC ATB combined with Example 15 @4 μgml” value (ECO UFR39; with Example 15 at 4 μg/ml)?
Answer: Its value is <0.031 µg/mL.

Question: What about the “MIC ATB combined with Example 16 @4 μg/ml” value (ECO UFR39; with Example 16 at 4 μg/ml) of the same compound?
Answer: Its value is <0.031 µg/mL.

Question: And the MIC (ECO UFR39; [2])?
Answer: Its MIC is > 32 µg/mL.

Question: And the “MIC ATB combined with Example 1 @8 μg/ml” value (ECO 190317; with Example 1 @8 μg/ml)?
Answer: Its value is <0.031 µg/mL.

Question: What about the “MIC ATB combined with Example 1 @8 μg/ml” value (ECO 190317; with Example 1 at 8 μg/ml) of the same compound?
Answer: The value was <0.031 µg/mL.

Question: And the “MIC ATB combined with Example 7 @8 μgml” value (ECO 190317; with Example 7 at 8 μg/ml)?
Answer: The value was <0.031 µg/mL.

Question: What about the “MIC ATB combined with Example 9 @4 μg/ml” value (ECO 190317; with Example 9 @4 μg/ml) of the same compound?
Answer: Its value is <0.031 µg/mL.

Question: What about the “MIC ATB combined with Example 9 @4 μg/ml” value (ECO 190317; with Example 9 at 4 μg/ml) of the same compound?
Answer: The value was <0.031 µg/mL.

Question: What about the “MIC ATB combined with Example 11 @8 μg/ml” value (ECO 190317; with Example 11 at 8 μg/ml) of the same compound?
Answer: Its value is <0.031 µg/mL.

Question: What about the “MIC ATB combined with Example 12 @8 μg/ml” value (ECO 190317; with Example 12 at 8 μg/ml) of the same compound?
Answer: The value was <0.031 µg/mL.

Question: What about the “MIC ATB combined with Example 13 @8 μg/ml” value (ECO 190317; with Example 13 at 8 μg/ml) of the same compound?
Answer: The value was <0.031 µg/mL.

Question: And the “MIC ATB combined with Example 14 @8 μg/ml” value (ECO 190317; with Example 14 at 8 μg/ml)?
Answer: The value was <0.031 µg/mL.

Question: What about the “MIC ATB combined with Example 15 @4 μgml” value (ECO 190317; with Example 15 at 4 μg/ml) of the same compound?
Answer: The value was <0.031 µg/mL.

Question: What about the “MIC ATB combined with Example 16 @4 μg/ml” value (ECO 190317; with Example 16 at 4 μg/ml) of the same compound?
Answer: Its value is <0.031 µg/mL.

Question: And the MIC (ECO 190317; [2])?
Answer: Its MIC is 8 µg/mL.

Question: And the “MIC ATB combined with Example 1 @8 μg/ml” value (ECL P99; with Example 1 @8 μg/ml)?
Answer: Its value is <0.031 µg/mL.

Question: What about the “MIC ATB combined with Example 1 @8 μg/ml” value (ECL P99; with Example 1 at 8 μg/ml) of the same compound?
Answer: The value was <0.031 µg/mL.

Question: And the “MIC ATB combined with Example 7 @8 μgml” value (ECL P99; with Example 7 at 8 μg/ml)?
Answer: The value was 0.063 µg/mL.

Question: And the “MIC ATB combined with Example 9 @4 μg/ml” value (ECL P99; with Example 9 @4 μg/ml)?
Answer: Its value is <0.031 µg/mL.

Question: What about the “MIC ATB combined with Example 9 @4 μg/ml” value (ECL P99; with Example 9 at 4 μg/ml) of the same compound?
Answer: The value was <0.031 µg/mL.
